In US20240360089A1, “Metabolically Stable HDAC Inhibitors with Trifluoromethylpyruvamide as Metal-Binding Group” (The University of Toledo, priority 2023, published 2024):
Where two headings read alike, the source gives them in different places. One block for each compound: values may come before it.

Assays:
[1] = tested on: HCT116 cells; assay: Growth inhibition / cell viability assay (methylene blue), HCT116; assay type: cell-based, human
Description: Cell feasibility was examined using methylene blue staining. Cells were plated at a rate of 5000/well in 96 well plates (n=3) respectively and treated the next day. Three days after treatment, cells were fixed/stained in methylene blue saturated in 50% ethanol for 30 min at room temperature. Excessive water was used to wash off extra dye from the plates.

[2] = S9 fraction metabolic stability assay (LC-ESI-MS); assay type: in vitro ADME; settings: human liver S9 fraction
From the text: Previous studies established that trifluoromethyl ketones are metabolically unstable and reduced in vivo to trifluoromethyl alcohols (TFMAs). This metabolic reduction caused a major loss in activity. […] It was believed that in TFPAs, the hydrate form of the ketone is stabilized compared to TFMKs, and is therefore less susceptible to reductive metabolism. […] Metabolic stability studies are primarily conducted using liver microsomal assays, as the predominant cytochrome P450 enzymes present in them are responsible for the metabolism of most xenobiotics in the human body. However, P450 transformations are mostly oxidative in nature, precluding their use to assess the stability of ketone drugs against reductive metabolism. […] Thus, using a liver extract containing both cytosol and microsomal enzymes would be more appropriate for this assay. This was accomplished by using the S9 fraction, which is basically the supernatant obtained from centrifugation of hepatocytes at 9000 g and contains both liver cytosol and microsomal enzymes. LC-ESI-MS was used to monitor the reduction of TFPA 60 over time and it was compared with TFMK 91.
A protocol similar to the one previously employed by others using Human Liver S9 fractions instead of liver microsomes was used for the metabolism studies. The assay was initiated by incubating a mixture of the substrate (0.02 mM), buffer (0.1M), and NADPH (1 mM) at 37° C. for ten minutes, followed by addition of the S9 fraction (0.5 mg) to the mixture and gentle mixing. The total volume of the reaction mixture was maintained at 1 mL. […] The reactions in the aliquots were terminated by adding an equal volume of ethyl acetate, mixing thoroughly, and transferring into micro centrifuge tubes. They were vortexed for 2 minutes and then subjected to centrifugation at 10,000×g for 15 minutes to remove the proteins. The top organic layers were extracted and evaporated under reduced pressure. The organic residues from the aliquots were dissolved in methanol first, then diluted 1:1 with water, and analyzed using LC-ESI-MS. A 450 μL aliquot of compound 60 with concentration of 0.02 mM contains 9 nanomoles, which after evaporation, was dissolved in 500 μL of methanol to give 18 μM in concentration of 60. This was diluted 1:1 with water to give a final concentration of 9 μM, which was used for LC-ESI-MS. Similarly, 200 μL of TFMK 91 at a concentration of 0.02 mM contains 4 nanomoles, which after removing ethyl acetate, and dissolving in 250 μL of methanol gives 16 μM concentration of 91. This was diluted 1:1 with water to give 8 μM final concentration for LC-ESI-MS.
The solvent flow rate was 0.2 mL/min, and the sample injection volume was 20 μL. […]

[3] = tested on: sixty cell lines; assay: NCI 60 cell five-dose assay; assay type: cell-based; settings: Total Growth Inhibition
[4] = tested on: sixty cell lines; assay: NCI 60 cell one-dose assay; assay type: cell-based; settings: result in words
[5] = tested on: PARP1; assay: Western blot analysis of PARP1 cleavage in HCT116 cells; assay type: cell-based, human; settings: HCT116 cells treated for 24 h; measure of caspase dependent cell death
Description: FIG. 13: Western blot analysis of PARP1 cleavage. HCT116 cells were treated with compounds 83, 84, and 85 at the indicated concentrations for 24 hr. Western blots were probed with an antibody that recognizes a cleaved form of PARP (Cell Signaling Technology 5626) as a measure of caspase dependent cell death.
To determine whether the compounds herein induced apoptosis, the enzyme Poly (ADP ribose) polymerase 1 (PARP1) was analyzed by western blotting. Caspase-dependent proteolytic cleavage of PARP1 is one of the hall marks of apoptosis and antibodies that specifically recognize the cleavage products are available. […] HCT116 cells were treated with compounds 83, 84, and 85 for 24 h.
NCI-H522 cell pellets obtained were lysed using lysis buffer containing 50 mM Tris (pH 7.4), 150 mM NaCl, 0.5% NP-40, (supplemented with 1 μg/ml aprotinin, 2 μg/ml leupeptin, 1 μg/ml pepstatin A, 1 mM DTT, and […]) for 30 minutes on ice and centrifuged at 13×10^3 g for 25 minutes at 4° C. The protein levels of the obtained lysates were normalized using BCA Protein Assay Kit (Pierce) and separated by SDS-polyacrylamide gel electrophoresis (12.5% acrylamide). Transfer to polyvinylidene difluoride membranes (Millipore) was followed by obstruction of membranes with blocking buffer containing 5% (w/v) non-fat dry milk dissolved in PBST [1×PBS containing 0.05% (v/v) Tween 20] for 1 hour at room temperature. Membranes were then incubated with corresponding primary antibodies overnight at 4° C. The membranes were then washed (3×15 min each) with PBST and incubated with secondary antibodies conjugated to horse-radish peroxidase, obtained from Biorad, and used at a dilution of 1:10,000. Bound antibodies were detected using enhanced chemiluminescence (Biorad).

[6] = Homo sapiens, HCT-116, zinc-binding group screen, growth inhibition, HCT116 cells, maximum concentration of 100 μM, read-out: HCT116 IC50
[7] = Homo sapiens, HCT-116, cap group SAR, HCT116 cell line, maximum concentration of 40 μM, read-out: IC50
[8] = Homo sapiens, HCT-116, read-out: IC50 (μM) HCT116
[9] = zinc-binding group screen, growth inhibition, HCT116 cells, maximum concentration of 100 μM

IC50 [1, 6]: > 100 µM
Compound: OC(c1c(F)c(F)c(-n2cc(-c3ccccc3)nn2)c(F)c1F)C(F)(F)F (stereo not shown)

IC50 [1, 6]: > 100 µM
Compound: OC(O)(c1c(F)c(F)c(-n2cc(-c3ccccc3)nn2)c(F)c1F)C(F)(F)F

IC50 [1, 6]: > 100 µM
Compound: O=C(CCCCNC(=O)c1cc(=O)c(O)co1)Nc1ccccc1

IC50 [1, 6]: > 100 µM
Compound: O=C(CCCCCNC(=O)c1cc(=O)c(O)co1)Nc1ccccc1

IC50 [1, 7]: > 40 µM
Compound: O=C(CCCCCCC(O)C(F)(F)F)Nc1ccccc1 (stereo not shown)

IC50 [1, 8]: 54.4 µM
IC50 [1, 6]: 54.4 µM
HCT116 IC50 [1, 9]: demonstrated antiproliferative activity
melting point: 103 to 108 °C
Compound: O=C(CCCCCNC(=O)C(O)(O)C(F)(F)F)Nc1ccccc1 [Compound 10b, N-phenyl-6-(3,3,3-trifluoro-2,2-dihydroxypropanamido)hexanamide]

IC50 [1, 8]: 9.14 µM
melting point: 123 to 128 °C
Compound: O=C(CCCCCCNC(=O)C(O)(O)C(F)(F)F)Nc1ccccc1 [Compound 10c, N-phenyl-7-(3,3,3-trifluoro-2,2-dihydroxypropanamido)heptanamide]

IC50 [1, 7]: 6.11 µM
melting point: 120 to 125 °C
Compound: COc1cccc(NC(=O)CCCCCCNC(=O)C(O)(O)C(F)(F)F)c1 [Compound 59, N-(3-methoxyphenyl)-7-(3,3,3-trifluoro-2,2-dihydroxypropanamido)heptanamide]

IC50 [1, 7]: 10.1 µM
melting point: 105 to 110 °C
Compound: COc1ccccc1NC(=O)CCCCCCNC(=O)C(O)(O)C(F)(F)F [Compound 66, N-(2-methoxyphenyl)-7-(3,3,3-trifluoro-2,2-dihydroxypropanamido)heptanamide]

IC50 [1, 7]: 29.9 µM
melting point: 143 to 148 °C
Compound: O=C(CCCCCCNC(=O)C(O)(O)C(F)(F)F)Nc1nc(-c2ccccc2)c(-c2ccccc2)s1 [Compound 68, N-(4,5-diphenylthiazol-2-yl)-7-(3,3,3-trifluoro-2,2-dihydroxypropanamido)heptanamide]

IC50 [1, 7]: 14.5 µM
melting point: 108 to 113 °C
Compound: O=C(CCCCCCNC(=O)C(O)(O)C(F)(F)F)Nc1ccccc1Br [Compound 75, N-(2-bromophenyl)-7-(3,3,3-trifluoro-2,2-dihydroxypropanamido)heptanamide]

melting point: 145 to 150 °C
Compound: O=C(CCCCCCNC(=O)C(O)(O)C(F)(F)F)Nc1ncc(-c2ccc(O)cc2)s1 [Compound 86, N-(5-(4-hydroxyphenyl)thiazol-2-yl)-7-(3,3,3-trifluoro-2,2-dihydroxypropanamido) heptanamide]

IC50 [1, 7]: 4.05 µM
melting point: 138 to 143 °C
Compound: CCOc1ccc(-c2cnc(NC(=O)CCCCCCNC(=O)C(O)(O)C(F)(F)F)s2)cc1 [Compound 87, N-(5-(4-ethoxyphenyl)thiazol-2-yl)-7-(3,3,3-trifluoro-2,2-dihydroxypropanamido)heptanamide]

The next lines start with the compound.

Compound: CC(=O)C(=O)NCCCCC(=O)Nc1ccccc1
IC50 [1, 6]: > 100 µM

Compound: CC(=O)C(=O)NCCCCCC(=O)Nc1ccccc1
IC50 [1, 6]: > 100 µM

Compound: CC(=O)C(=O)NCCCCCCC(=O)Nc1ccccc1
IC50 [1, 6]: > 100 µM

Compound: C/C(=N\O)C(=O)NCCCCC(=O)Nc1ccccc1
IC50 [1, 6]: > 100 µM

Compound: C/C(=N\O)C(=O)NCCCCCC(=O)Nc1ccccc1
IC50 [1, 6]: > 100 µM

Compound: C/C(=N\O)C(=O)NCCCCCCC(=O)Nc1ccccc1
IC50 [1, 6]: > 100 µM

Compound: NC(=O)C(=O)NCCCCC(=O)Nc1ccccc1
IC50 [1, 6]: > 100 µM

Compound: NC(=O)C(=O)NCCCCCC(=O)Nc1ccccc1
IC50 [1, 6]: > 100 µM

Compound: NC(=O)C(=O)NCCCCCCCC(=O)Nc1ccccc1
IC50 [1, 6]: > 100 µM

Compound: O=C(CCCCCNC(=O)c1ccc[nH]1)Nc1ccccc1
IC50 [1, 6]: > 100 µM

Compound: O=C(CCCCCCNC(=O)c1cc(=O)c(O)co1)Nc1ccccc1
IC50 [1, 6]: > 100 µM

Compound: O=C(CCCCCCNC(=O)C(O)(O)C(F)(F)F)Nc1nccs1 [Compound 60, N-(thiazol-2-yl)-7-(3,3,3-trifluoro-2,2-dihydroxypropanamido)heptanamide]
time over which parent M+1 peak did not disappear ([2]; NADPH, 37° C., LC-ESI-MS, aliquots at 1h, 2 hrs): over 2 hours
metabolic reduction to the alcohol ([2]; result in words): no reduction to the alcohol
melting point: 137 to 142 °C

Compound: O=C(CCCCCCNC(=O)C(O)(O)C(F)(F)F)Nc1ccc(Cl)cc1 [Compound 64, N-(4-chlorophenyl)-7-(3,3,3-trifluoro-2,2-dihydroxypropanamido)heptanamide]
TGI [3]: 26.92 µM

Compound: O=C(CCCCCCNC(=O)C(O)(O)C(F)(F)F)Nc1ccc(Br)cc1 [Compound 65, N-(4-bromophenyl)-7-(3,3,3-trifluoro-2,2-dihydroxypropanamido)heptanamide]
TGI [3]: 20.89 µM

Compound: O=C(CCCCCCNC(=O)C(O)(O)C(F)(F)F)Nc1ccc(-c2ccccc2)cc1 [Compound 69, N-([1,1′-biphenyl]-4-yl)-7-(3,3,3-trifluoro-2,2-dihydroxypropanamido)heptanamide]
TGI [3]: 15.14 µM

Compound: O=C(CCCCCCNC(=O)C(O)(O)C(F)(F)F)Nc1ncc(-c2ccc(Br)cc2)s1 [Compound 85, N-(5-(4-bromophenyl)thiazol-2-yl)-7-(3,3,3-trifluoro-2,2-dihydroxypropanamido)heptanamide]
cytostatic / cytotoxic activity in NCI 60 assays [4]: cytotoxic effects
TGI [3]: 11.4 µM
PARP1 cleavage (cleaved PARP1) [5]: Dose-dependent elevation of cleaved PARP1 was detectable

Compound: O=C(CCCCCCCNC(=O)c1cc(=O)c(O)co1)Nc1ccccc1 [Compound 89]
HCT116 IC50 [1, 9]: inactive

Compound: O=C(CCCCCCNC(=O)C(O)C(F)(F)F)Nc1nccs1 (stereo not shown) [Compound 92]
IC50 ([1]; cap group SAR, HCT116 cell line, maximum concentration of 40 μM): inactive

Compound: O=C(CCCCCCCNC(=O)c1cc(=O)c(O)co1)Nc1ccccc1 [drawing 33]
IC50 [1, 6]: > 100 µM

Compound: O=C(CCCCCCNC(=O)C(O)C(F)(F)F)Nc1nccs1 (stereo not shown) [drawing 78]
IC50 [1, 7]: > 40 µM
